Test results reported in PubChem BioAssay (NCI).
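Assay format: 96-well plates, 48-hour exposure. GI50 marks 50% less growth. The concentration for full growth arrest is given as TGI.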

Experiments:
Test in all cases: growth of human tumour cells (NCI), 48 h
UO-31 renal = test system: UO-31 renal
RXF 393 renal = test system: RXF 393 renal
786-0 renal = test system: 786-0 renal
A498 renal = test system: A498 renal
COLO 205 colon = test system: COLO 205 colon
HT29 colon = test system: HT29 colon
NCI-H23 lung = test system: NCI-H23 lung
T-47D breast = test system: T-47D breast
HCT-116 colon = test system: HCT-116 colon
HCT-15 colon = test system: HCT-15 colon
SK-MEL-2 melanoma = test system: SK-MEL-2 melanoma
MDA-MB-435 = test system: MDA-MB-435
IGROV1 ovarian = test system: IGROV1 ovarian
OVCAR-4 ovarian = test system: OVCAR-4 ovarian
MOLT-4 leukemia = test system: MOLT-4 leukemia
NCI-H226 lung = test system: NCI-H226 lung
SR leukemia = test system: SR leukemia
MALME-3M melanoma = test system: MALME-3M melanoma
EKVX NSCLC = test system: EKVX NSCLC
NCI-H460 lung = test system: NCI-H460 lung
CCRF-CEM leukemia = test system: CCRF-CEM leukemia
LOX IMVI melanoma = test system: LOX IMVI melanoma
K-562 leukemia = test system: K-562 leukemia
PC-3 prostate = test system: PC-3 prostate
SK-OV-3 ovarian = test system: SK-OV-3 ovarian
KM12 colon = test system: KM12 colon
CAKI-1 renal = test system: CAKI-1 renal
U251 CNS = test system: U251 CNS
A549 NSCLC = test system: A549 NSCLC
MCF7 breast = test system: MCF7 breast
SK-MEL-28 melanoma = test system: SK-MEL-28 melanoma
HL-60(TB) leukemia = test system: HL-60(TB) leukemia
MDA-MB-468 breast = test system: MDA-MB-468 breast
SF-539 CNS = test system: SF-539 CNS
BT-549 breast = test system: BT-549 breast
SN12C renal = test system: SN12C renal
SNB-19 CNS = test system: SNB-19 CNS
OVCAR-5 ovarian = test system: OVCAR-5 ovarian
SF-268 CNS = test system: SF-268 CNS
RPMI-8226 leukemia = test system: RPMI-8226 leukemia
SNB-75 CNS = test system: SNB-75 CNS
MDA-MB-231 breast = test system: MDA-MB-231 breast
TK-10 renal = test system: TK-10 renal
DU-145 prostate = test system: DU-145 prostate
OVCAR-3 ovarian = test system: OVCAR-3 ovarian
UACC-62 melanoma = test system: UACC-62 melanoma
ACHN renal = test system: ACHN renal
HOP-62 NSCLC = test system: HOP-62 NSCLC
SF-295 CNS = test system: SF-295 CNS
OVCAR-8 ovarian = test system: OVCAR-8 ovarian
SW-620 colon = test system: SW-620 colon
SK-MEL-5 melanoma = test system: SK-MEL-5 melanoma
HCC-2998 colon = test system: HCC-2998 colon
M14 melanoma = test system: M14 melanoma
HS 578T breast = test system: HS 578T breast

Q: What does the source list for `CC1=C(C(=O)OCc2ccccc2)C(c2cccc3ccccc23)n2c(nc3ccccc32)N1` (stereo not given)?
A: GI50 (UO-31 renal): 4.64 µM; TGI (UO-31 renal): > 100 µM; GI50 (RXF 393 renal): 1510 nM; TGI (RXF 393 renal): 6.9 µM; GI50 (786-0 renal): 4.68 µM; TGI (786-0 renal): > 100 µM; GI50 (A498 renal): > 100 µM; TGI (A498 renal): > 100 µM; GI50 (COLO 205 colon): 3.22 µM; TGI (COLO 205 colon): > 100 µM; GI50 (HT29 colon): 2530 nM; TGI (HT29 colon): 8.29 µM; GI50 (NCI-H23 lung): 32.6 µM; TGI (NCI-H23 lung): > 100 µM; GI50 (T-47D breast): 4.22 µM; TGI (T-47D breast): > 100 µM; GI50 (HCT-116 colon): 3.19 µM; TGI (HCT-116 colon): > 100 µM; GI50 (HCT-15 colon): 3.61 µM; TGI (HCT-15 colon): > 100 µM; GI50 (SK-MEL-2 melanoma): 2500 nM; TGI (SK-MEL-2 melanoma): 7.66 µM; GI50 (MDA-MB-435): 1860 nM; TGI (MDA-MB-435): 4.68 µM; GI50 (IGROV1 ovarian): 5.49 µM; TGI (IGROV1 ovarian): > 100 µM; GI50 (OVCAR-4 ovarian): 6.36 µM; TGI (OVCAR-4 ovarian): > 100 µM; GI50 (MOLT-4 leukemia): 2710 nM; TGI (MOLT-4 leukemia): > 100 µM; GI50 (NCI-H226 lung): 3.26 µM; TGI (NCI-H226 lung): > 100 µM; GI50 (SR leukemia): 2400 nM; TGI (SR leukemia): > 100 µM; GI50 (MALME-3M melanoma): 3.84 µM; TGI (MALME-3M melanoma): > 100 µM; GI50 (EKVX NSCLC): 4.8 µM; TGI (EKVX NSCLC): > 100 µM; GI50 (NCI-H460 lung): 3.61 µM; TGI (NCI-H460 lung): > 100 µM; GI50 (CCRF-CEM leukemia): 2690 nM; TGI (CCRF-CEM leukemia): > 100 µM; GI50 (LOX IMVI melanoma): 5.7 µM; TGI (LOX IMVI melanoma): > 100 µM; GI50 (K-562 leukemia): 1660 nM; TGI (K-562 leukemia): > 100 µM; GI50 (PC-3 prostate): 3.33 µM; TGI (PC-3 prostate): > 100 µM; GI50 (SK-OV-3 ovarian): 3.97 µM; TGI (SK-OV-3 ovarian): > 100 µM; GI50 (KM12 colon): 3.21 µM; TGI (KM12 colon): > 100 µM; GI50 (CAKI-1 renal): 2400 nM; TGI (CAKI-1 renal): > 100 µM; GI50 (U251 CNS): 3.49 µM; TGI (U251 CNS): > 100 µM; GI50 (A549 NSCLC): 5.21 µM; TGI (A549 NSCLC): > 100 µM; GI50 (MCF7 breast): 2710 nM; TGI (MCF7 breast): > 100 µM; GI50 (SK-MEL-28 melanoma): > 100 µM; TGI (SK-MEL-28 melanoma): > 100 µM; GI50 (HL-60(TB) leukemia): 2140 nM; TGI (HL-60(TB) leukemia): > 100 µM; GI50 (MDA-MB-468 breast): 1930 nM; TGI (MDA-MB-468 breast): 7.26 µM; GI50 (SF-539 CNS): 3.22 µM; TGI (SF-539 CNS): > 100 µM; GI50 (BT-549 breast): 4.67 µM; TGI (BT-549 breast): > 100 µM; GI50 (SN12C renal): 5.08 µM; TGI (SN12C renal): > 100 µM; GI50 (SNB-19 CNS): 5.8 µM; TGI (SNB-19 CNS): > 100 µM; GI50 (OVCAR-5 ovarian): > 100 µM; TGI (OVCAR-5 ovarian): > 100 µM; GI50 (SF-268 CNS): 5.44 µM; TGI (SF-268 CNS): > 100 µM; GI50 (RPMI-8226 leukemia): 3.46 µM; TGI (RPMI-8226 leukemia): > 100 µM; GI50 (SNB-75 CNS): 1390 nM; TGI (SNB-75 CNS): 4.91 µM; GI50 (MDA-MB-231 breast): > 100 µM; TGI (MDA-MB-231 breast): > 100 µM; GI50 (TK-10 renal): > 100 µM; TGI (TK-10 renal): > 100 µM; GI50 (DU-145 prostate): 4.21 µM; TGI (DU-145 prostate): > 100 µM; GI50 (OVCAR-3 ovarian): 2650 nM; TGI (OVCAR-3 ovarian): 7.58 µM; GI50 (UACC-62 melanoma): 3.99 µM; TGI (UACC-62 melanoma): > 100 µM; GI50 (ACHN renal): 4.66 µM; TGI (ACHN renal): > 100 µM; GI50 (HOP-62 NSCLC): 4.15 µM; TGI (HOP-62 NSCLC): > 100 µM; GI50 (SF-295 CNS): 3.04 µM; TGI (SF-295 CNS): > 100 µM; GI50 (OVCAR-8 ovarian): 4.94 µM; TGI (OVCAR-8 ovarian): > 100 µM; GI50 (SW-620 colon): 3.62 µM; TGI (SW-620 colon): > 100 µM; GI50 (SK-MEL-5 melanoma): 3.37 µM; TGI (SK-MEL-5 melanoma): 21.7 µM; GI50 (HCC-2998 colon): 7.58 µM; TGI (HCC-2998 colon): > 100 µM; GI50 (M14 melanoma): 3.78 µM; TGI (M14 melanoma): > 100 µM; GI50 (HS 578T breast): 2690 nM; TGI (HS 578T breast): 8.82 µM
